# Measurements reported in ChEMBL document CHEMBL1158571, “Antiplasmodial lanostanes from the Ganoderma lucidum mushroom” (J Nat Prod, 2010).
# Calls of active or inactive are those of the source. The calls are words filed in the database; no cut-off is given here.
# System: Plasmodium falciparum
# Test: Antiplasmodial activity against Plasmodium falciparum
# Type: functional, organism-based
row,Structure (SMILES),IC50 [µM]
1,C/C(=C\CC[C@@H](C)[C@H]1C[C@@H](O)[C@@]2(C)C3=CC[C@H]4C(C)(C)C(=O)CC[C@]4(C)C3=CC[C@]12C)C(=O)O [GANODERIC ACID TR 1],18
2,C/C(=C/CC[C@@H](C)[C@H]1C[C@H](O)[C@@]2(C)C3=CC[C@H]4C(C)(C)C(=O)CC[C@]4(C)C3=CC[C@]12C)C(=O)O [GANODERIC ACID TR],20
3,C[C@H](CC[C@@H](O)C(C)(C)O)[C@H]1CC[C@@]2(C)C3=CC[C@H]4C(C)(C)C(=O)CC[C@]4(C)C3=CC[C@]12C [GANODERMANONDIOL],13
4,C/C(C=O)=C/CC[C@@H](C)[C@H]1C[C@H](O)[C@@]2(C)C3=CC[C@H]4C(C)(C)C(=O)CC[C@]4(C)C3=CC[C@]12C [GANODERIC ALDEHYDE TR],6
5,C/C(=C/C(O)C[C@@H](C)[C@H]1CC[C@@]2(C)C3=CC[C@H]4C(C)(C)C(O)CC[C@]4(C)C3=CC[C@]12C)C(=O)O (stereo partly drawn),11
6,C/C(=C/CC[C@@H](C)[C@H]1CC[C@@]2(C)C3=CC[C@H]4C(C)(C)C(=O)CC[C@]4(C)C3=CC[C@]12C)C(=O)O [GANODERIC ACID S],11

# System: Plasmodium falciparum
# Test: Antiplasmodial activity against Plasmodium falciparum at 20 uM
# Type: functional, organism-based
row,Structure (SMILES),Activity
1,C/C(=C/CC[C@@H](C)[C@H]1CC[C@@]2(C)C3=C(CC[C@]12C)[C@@]1(C)CCC(=O)C(C)(C)[C@@H]1CC3=O)C(=O)O,inactive
2,CC(C)=CCC/C(C)=C/CCC(C(=O)O)c1cc2cc(O)ccc2o1 (stereo not drawn),inactive
